According to PubChem BioAssay (NCI):
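Dose response: 5 concentrations. Exposure: 48 h. Format: 96-well plates. Endpoint: linear interpolation; highest concentration if not reached. TGI denotes the concentration required for complete inhibition of growth.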

Experiments:
Assay in all cases: NCI-60 cell line screen, 48 h
[1] = tested on: HOP-92 NSCLC
[2] = tested on: NCI-H460 lung
[3] = tested on: M19-MEL melanoma
[4] = tested on: SNB-19 CNS
[5] = tested on: SK-MEL-28 melanoma
[6] = tested on: RXF 393 renal
[7] = tested on: TK-10 renal
[8] = tested on: SF-295 CNS
[9] = tested on: SK-OV-3 ovarian
[10] = tested on: CAKI-1 renal
[11] = tested on: NCI-H23 lung
[12] = tested on: CCRF-CEM leukemia
[13] = tested on: SW-620 colon
[14] = tested on: RPMI-8226 leukemia
[15] = tested on: SF-268 CNS
[16] = tested on: KM12 colon
[17] = tested on: EKVX NSCLC
[18] = tested on: DU-145 prostate
[19] = tested on: U251 CNS
[20] = tested on: NCI-H226 lung
[21] = tested on: SR leukemia
[22] = tested on: SK-MEL-2 melanoma
[23] = tested on: HCC-2998 colon
[24] = tested on: KM20L2 colon
[25] = tested on: HT29 colon
[26] = tested on: SK-MEL-5 melanoma
[27] = tested on: HOP-18 NSCLC
[28] = tested on: MOLT-4 leukemia
[29] = tested on: SNB-75 CNS
[30] = tested on: 786-0 renal
[31] = tested on: ACHN renal
[32] = tested on: HL-60(TB) leukemia
[33] = tested on: OVCAR-5 ovarian
[34] = tested on: A549 NSCLC
[35] = tested on: SF-539 CNS
[36] = tested on: A498 renal
[37] = tested on: OVCAR-8 ovarian
[38] = tested on: M14 melanoma
[39] = tested on: UACC-62 melanoma
[40] = tested on: XF 498 CNS
[41] = tested on: LXFL 529 NSCLC
[42] = tested on: UACC-257 melanoma
[43] = tested on: MALME-3M melanoma
[44] = tested on: COLO 205 colon
[45] = tested on: K-562 leukemia
[46] = tested on: DLD-1 colon
[47] = tested on: LOX IMVI melanoma
[48] = tested on: OVCAR-3 ovarian
[49] = tested on: OVCAR-4 ovarian
[50] = tested on: NCI-H522 lung
[51] = tested on: SN12C renal
[52] = tested on: HCT-116 colon
[53] = tested on: UO-31 renal
[54] = tested on: IGROV1 ovarian
[55] = tested on: DMS 114 small cell lung
[56] = tested on: T-47D breast
[57] = tested on: SNB-78 CNS
[58] = tested on: BT-549 breast
[59] = tested on: MCF7 breast
[60] = tested on: NCI/ADR-RES ovarian
[61] = tested on: MDA-N
[62] = tested on: MDA-MB-231 breast
[63] = tested on: MDA-MB-435
[64] = tested on: PC-3 prostate
[65] = tested on: HCT-15 colon
[66] = tested on: HOP-62 NSCLC

What does the source list for `C[N+](C)(C)CC(=O)N/N=C/c1oc(-c2c(O)ccc3ccccc23)c(-c2c(O)ccc3ccccc23)c1[N+](=O)[O-]`?
TGI [1]: 50.9 µM; TGI [2]: 49.3 µM; TGI [3]: 60.8 µM; TGI [4]: > 100 µM; TGI [5]: 49.2 µM; TGI [6]: 26.8 µM; TGI [7]: 87.1 µM; TGI [8]: 47.4 µM; TGI [9]: 36.3 µM; TGI [10]: 75.5 µM; TGI [11]: 37.2 µM; TGI [12]: 76.7 µM; TGI [13]: > 100 µM; TGI [14]: > 100 µM; TGI [15]: 47.3 µM; TGI [16]: 38.9 µM; TGI [17]: 45 µM; TGI [18]: 47.6 µM; TGI [19]: 47.8 µM; TGI [20]: 36.3 µM; TGI [21]: 58.3 µM; TGI [22]: 33.4 µM; TGI [23]: 34.3 µM; TGI [24]: 36 µM; TGI [25]: 38.5 µM; TGI [26]: 22.9 µM; TGI [27]: 62.8 µM; TGI [28]: 62.3 µM; TGI [29]: 61.1 µM; TGI [30]: 44.3 µM; TGI [31]: 32.5 µM; TGI [32]: 66.6 µM; TGI [33]: 60.1 µM; TGI [34]: 81.5 µM; TGI [35]: 29.4 µM; TGI [36]: 31.6 µM; TGI [37]: 78.6 µM; TGI [38]: 37.2 µM; TGI [39]: 18.6 µM; TGI [40]: 55.5 µM; TGI [41]: > 100 µM; TGI [42]: 51.9 µM; TGI [43]: 28.2 µM; TGI [44]: 42.2 µM; TGI [45]: > 100 µM; TGI [46]: 54.6 µM; TGI [47]: 33.3 µM; TGI [48]: 44.2 µM; TGI [49]: 80.8 µM; TGI [50]: 31.1 µM; TGI [51]: 92.7 µM; TGI [52]: 24.7 µM; TGI [53]: 36 µM; TGI [54]: 44.2 µM

Which results are given for `CC1=NN(C(=O)c2ccccc2O)C(=O)/C1=C/c1ccco1`?
TGI [1]: > 71.4 µM; TGI [2]: > 60.5 µM; TGI [3]: 20 µM; TGI [4]: > 91.1 µM; TGI [5]: > 100 µM; TGI [55]: 6.94 µM; TGI [56]: > 100 µM; TGI [7]: > 100 µM; TGI [8]: > 88.3 µM; TGI [9]: > 82 µM; TGI [10]: 19.7 µM; TGI [57]: > 100 µM; TGI [58]: > 100 µM; TGI [11]: > 26.9 µM; TGI [12]: > 100 µM; TGI [13]: > 100 µM; TGI [14]: > 92.6 µM; TGI [15]: > 100 µM; TGI [59]: 37.9 µM; TGI [16]: > 100 µM; TGI [60]: 85.3 µM; TGI [17]: 44.2 µM; TGI [18]: > 100 µM; TGI [19]: > 100 µM; TGI [20]: 44.4 µM; TGI [21]: > 100 µM; TGI [22]: > 100 µM; TGI [61]: > 100 µM; TGI [23]: > 100 µM; TGI [62]: > 100 µM; TGI [24]: 81 µM; TGI [25]: > 100 µM; TGI [26]: 9.19 µM; TGI [28]: > 100 µM; TGI [63]: > 100 µM; TGI [29]: 69.4 µM; TGI [64]: 46 µM; TGI [30]: > 100 µM; TGI [31]: > 100 µM; TGI [32]: > 26.8 µM; TGI [33]: > 100 µM; TGI [34]: > 100 µM; TGI [35]: 10.7 µM; TGI [36]: > 100 µM; TGI [37]: 97.9 µM; TGI [38]: > 100 µM; TGI [39]: 6.27 µM; TGI [40]: > 100 µM; TGI [41]: > 100 µM; TGI [42]: > 83.1 µM; TGI [43]: 73.1 µM; TGI [44]: > 63.8 µM; TGI [65]: > 100 µM; TGI [45]: > 100 µM; TGI [46]: > 100 µM; TGI [47]: > 75.5 µM; TGI [48]: 6.11 µM; TGI [49]: > 84.8 µM; TGI [50]: 37.7 µM; TGI [51]: > 39.3 µM; TGI [52]: > 100 µM; TGI [54]: > 35.4 µM

Which results are given for `Clc1ccc(C2SCc3nc4ccccc4n32)c(Cl)c1` (stereo not given)?
TGI [1]: 11 µM; TGI [66]: 27.5 µM; TGI [2]: 34.7 µM; TGI [3]: 28.9 µM; TGI [4]: 33 µM; TGI [5]: 31.6 µM; TGI [6]: 29.6 µM; TGI [55]: 22.1 µM; TGI [7]: 28.4 µM; TGI [8]: 21.1 µM; TGI [9]: 42.1 µM; TGI [11]: 25.1 µM; TGI [12]: 40.8 µM; TGI [13]: 22 µM; TGI [14]: 41.1 µM; TGI [15]: 31.1 µM; TGI [16]: 29.4 µM; TGI [17]: 24.9 µM; TGI [19]: 32 µM; TGI [20]: 30.4 µM; TGI [21]: 39.1 µM; TGI [22]: 33.8 µM; TGI [23]: 28.8 µM; TGI [24]: 36.3 µM; TGI [25]: 30.4 µM; TGI [26]: 20.4 µM; TGI [27]: 34.4 µM; TGI [28]: 34.6 µM; TGI [29]: 34.8 µM; TGI [30]: 31.9 µM; TGI [31]: 28.7 µM; TGI [32]: 28.3 µM; TGI [33]: 30.3 µM; TGI [34]: 28.8 µM; TGI [35]: 31.4 µM; TGI [36]: 28.4 µM; TGI [37]: 32.1 µM; TGI [38]: 28 µM; TGI [39]: 32 µM; TGI [40]: 33.6 µM; TGI [41]: 24.5 µM; TGI [42]: 22.2 µM; TGI [43]: 32.5 µM; TGI [44]: 31.5 µM; TGI [65]: 37.5 µM; TGI [45]: 39.6 µM; TGI [46]: 30.3 µM; TGI [47]: 29.4 µM; TGI [48]: 27.3 µM; TGI [50]: 29.9 µM; TGI [51]: 28.1 µM; TGI [52]: 27.6 µM; TGI [53]: 24.9 µM; TGI [54]: 31.5 µM
